Source: PMC11477621, “Design, Synthesis, and Biological Evaluation of HDAC Inhibitors Containing Natural Product-Inspired N-Linked 2-Acetylpyrrole Cap” (Molecules, 2024)

Assays:
[1] = system: Ac-tubulin in RPMI-8226 cells; test: Western blot of Ac-tubulin; assay type: cell-based, human; details: 24 h; for Ac-α-tubulin protein expression: tested concentrations
Protocol: (§1) RPMI-8226 cells were seeded in six-well plates and treated with compounds for 24 h. Cells were lysed with 1× SDS loading buffer (50 mM Tris pH 6.8, 100 mM DTT, 2% SDS, 0.1% bromophenol blue, 10% glycerol), and then centrifuged at 12,000 rpm for 5 min at 4 °C. Cell extracts were probed with antibodies Ac-Tubulin (#5335T, CST, Kansas City, MO, USA), α-Tubulin (#2144S, CST, Kansas City, MO, USA), AcH3 (#ab39139, active motif, Carlsbad, CA, USA), Histone H3 (#17168-1-AP, Proteintech, Chicago, IL, USA), GAPDH (#60004-1-1g, Proteintech, Chicago, IL, USA), Goat Anti-Mouse IgG, H&L Chain Specific Peroxidase Conjugate (#401215, Calbiochem, Darmstadt, Germany), Goat Anti-Rabbit IgG, or H&L Chain Specific Peroxidase Conjugate (#401353, Calbiochem, Germany), then detected using Bio-RAD power pal Basic (#041BR66615, BioRad Laboratories, Hercules, CA, USA), Bio-RAD Mini-PROTEAN Tetrade System (#IEC/EN 61010-1, BioRad Laboratories, Hercules, CA, USA), or Bio-RAD Chemi Touch Imagin (BioRad Laboratories, Hercules, CA, USA).

[2] = ref [46],[47]; cited from earlier work
[3] = system: HL-60 (human leukemia cell line); test: CCK8 cell viability assay, HL-60; assay type: cell-based; details: 72 h, read-out: Proliferation inhibition IC50 ± SD, HL-60
Protocol: (§2) The CCK8 (#AC11L054, Life ilab, Shanghai, China) method was used to detect the cells’ proliferation. Cells were seeded into a 96-well culture plate at an appropriate density. […] IC50 values were estimated using the four-parameter method. Each set of experiments was repeated independently three times with three replicate wells per concentration each time.

HDAC3 = HDAC3 (Homo sapiens, UniProt O15379); test: HDAC inhibition assay (HTRF), HDAC3; details: for inhibition at 1 µM: read-out: (%) Inhibition of HDAC3;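 for all read-outs here: HTRF detection with streptavidin-XL665 and a Eu cryptate-labelled antibody against unmodified H3K9, two independent runs with duplicate wells at each concentration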
Sequence of HDAC3 (O15379 whole entry): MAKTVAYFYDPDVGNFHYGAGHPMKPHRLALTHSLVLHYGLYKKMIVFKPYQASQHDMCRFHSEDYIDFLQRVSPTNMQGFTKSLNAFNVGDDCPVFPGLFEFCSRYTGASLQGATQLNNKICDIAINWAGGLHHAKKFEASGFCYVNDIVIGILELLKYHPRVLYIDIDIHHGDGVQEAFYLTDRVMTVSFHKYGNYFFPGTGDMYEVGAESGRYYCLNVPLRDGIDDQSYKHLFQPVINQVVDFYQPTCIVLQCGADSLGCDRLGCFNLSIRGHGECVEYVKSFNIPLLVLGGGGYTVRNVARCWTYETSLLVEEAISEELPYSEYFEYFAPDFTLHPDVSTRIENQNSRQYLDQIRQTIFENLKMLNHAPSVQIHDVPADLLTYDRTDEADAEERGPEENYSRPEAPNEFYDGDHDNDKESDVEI
Sequence of HDAC3 (Q9Y618 395-489 partner limits assumed): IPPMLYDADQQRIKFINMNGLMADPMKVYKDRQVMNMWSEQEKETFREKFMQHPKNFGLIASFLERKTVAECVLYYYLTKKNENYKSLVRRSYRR
Protocol: (§3) Then, SA-XL665 (#610SAXLG, Cisbio, Bedford, MA, USA) and anti-H3K9me0-Eu(K) (#61KB0KAD, Cisbio, USA) were added. […] The IC50 value of the compounds was calculated using GraphPad 7.0 software. Each set of experiments was independently repeated twice, with two replicate wells per concentration each time.

HDAC6 = target: T1, HDAC6 (Homo sapiens, UniProt Q9UBN7); test: HDAC inhibition assay (HTRF), HDAC6; assay type: biochemical; details: for IC50: read-out: IC50 ± SD, HDAC6
T1 construct: purchased BPS #50006
T1 sequence (Q9UBN7 1-1215): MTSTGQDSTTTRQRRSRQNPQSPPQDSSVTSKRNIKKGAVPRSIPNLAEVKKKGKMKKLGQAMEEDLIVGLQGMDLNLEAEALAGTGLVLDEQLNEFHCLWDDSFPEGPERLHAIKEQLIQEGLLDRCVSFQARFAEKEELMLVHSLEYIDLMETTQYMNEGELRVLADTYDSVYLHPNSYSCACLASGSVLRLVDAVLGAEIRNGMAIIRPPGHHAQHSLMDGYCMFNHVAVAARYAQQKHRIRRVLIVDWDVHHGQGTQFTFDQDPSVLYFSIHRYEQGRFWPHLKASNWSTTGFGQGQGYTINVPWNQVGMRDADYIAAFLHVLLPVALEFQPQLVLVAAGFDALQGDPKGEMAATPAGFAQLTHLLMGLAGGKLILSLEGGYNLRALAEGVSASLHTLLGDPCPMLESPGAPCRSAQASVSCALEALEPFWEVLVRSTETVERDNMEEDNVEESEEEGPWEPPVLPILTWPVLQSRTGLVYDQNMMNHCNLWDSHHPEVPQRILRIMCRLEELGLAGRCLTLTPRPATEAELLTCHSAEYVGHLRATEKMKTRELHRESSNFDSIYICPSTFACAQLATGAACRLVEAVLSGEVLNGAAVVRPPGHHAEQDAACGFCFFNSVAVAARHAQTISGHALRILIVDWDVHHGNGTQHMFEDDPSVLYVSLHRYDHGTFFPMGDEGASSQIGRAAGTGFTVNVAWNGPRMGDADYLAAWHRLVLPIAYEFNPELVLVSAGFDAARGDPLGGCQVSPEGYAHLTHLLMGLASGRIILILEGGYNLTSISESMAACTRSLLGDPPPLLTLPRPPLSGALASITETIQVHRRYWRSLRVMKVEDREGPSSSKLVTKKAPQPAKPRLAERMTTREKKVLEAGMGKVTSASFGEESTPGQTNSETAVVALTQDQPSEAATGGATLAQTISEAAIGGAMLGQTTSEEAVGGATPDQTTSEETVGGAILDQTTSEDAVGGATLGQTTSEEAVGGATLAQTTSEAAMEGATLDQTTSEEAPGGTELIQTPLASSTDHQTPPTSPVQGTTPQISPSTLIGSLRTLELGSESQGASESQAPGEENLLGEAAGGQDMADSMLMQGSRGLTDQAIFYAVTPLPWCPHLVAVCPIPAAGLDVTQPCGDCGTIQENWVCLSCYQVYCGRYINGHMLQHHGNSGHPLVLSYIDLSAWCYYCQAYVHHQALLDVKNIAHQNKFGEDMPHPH
Protocol: as §3

RPMI-8226 cells = test: Apoptosis assay, Annexin V-FITC/PI flow cytometry; assay type: cell-based, human; details: 1, 3 and 10 μM, 48 h
Source text: Annexin V-FITC and PI double-staining detection kits were used to determine apoptotic cells. […] Data results were obtained from three independent experiments.

[4] = system: Ac-histone H3 in RPMI-8226 cells; test: Western blot of Ac-histone H3; assay type: cell-based, human; details: 24 h; for Histone H3 acetylation level: 10 μM
Protocol: as §1

[5] = system: RPMI-8226 (human myeloma cell line); test: CCK8 cell viability assay, RPMI-8226; assay type: cell-based; details: 72 h, read-out: Proliferation inhibition IC50 ± SD, RPMI-8226
Protocol: as §2

[6] = system: HCT-116 (human colon cancer cell line); test: CCK8 cell viability assay, HCT-116; assay type: cell-based; details: 72 h, read-out: Proliferation inhibition IC50 ± SD, HCT-116
Protocol: as §2

HDAC1 = target: T2, HDAC1 (Homo sapiens, UniProt Q13547); test: HDAC inhibition assay (HTRF), HDAC1; assay type: biochemical; details: for IC50: read-out: IC50 ± SD, HDAC1;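 for all read-outs here: HTRF detection with streptavidin-XL665 plus Eu(K)-labelled anti-H3K9me0 antibody, two independent runs with duplicate wells per concentration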
T2 construct: purchased BPS #50001
T2 sequence (Q13547 whole entry): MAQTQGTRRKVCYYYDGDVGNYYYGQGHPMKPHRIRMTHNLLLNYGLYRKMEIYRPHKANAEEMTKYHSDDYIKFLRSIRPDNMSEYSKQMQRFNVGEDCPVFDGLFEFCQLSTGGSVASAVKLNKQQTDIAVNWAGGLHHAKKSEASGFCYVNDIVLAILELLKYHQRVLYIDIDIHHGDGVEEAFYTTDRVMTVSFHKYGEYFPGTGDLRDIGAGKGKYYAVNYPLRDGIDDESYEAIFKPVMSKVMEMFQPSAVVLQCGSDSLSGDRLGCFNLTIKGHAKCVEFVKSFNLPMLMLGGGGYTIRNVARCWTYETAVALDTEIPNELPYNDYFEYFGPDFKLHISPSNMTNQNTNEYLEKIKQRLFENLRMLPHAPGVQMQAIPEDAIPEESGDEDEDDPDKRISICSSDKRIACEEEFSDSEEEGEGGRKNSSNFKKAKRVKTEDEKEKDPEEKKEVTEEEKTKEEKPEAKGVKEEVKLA
Protocol: as §3

[7] = Pharmacokinetic study in male ICR mice; assay type: in vivo; details: mouse, plasma
Protocol: Specific procedures were referred to the reported method. ICR mice (n = 6) were fasted for 12 h before administration and remained fasting for 2 h. The animal room environment was controlled (target conditions: temperature 18 to 29 °C, relative humidity 30 to 70%). Temperature and relative humidity were monitored daily. An electronic time-controlled lighting system was used to provide a 12 h light/12 h dark cycle. Compound 20 was administered at doses of 5 mg/kg (po) and 1 mg/kg (iv). The time points for blood sample collection were 0.25, 0.50, 1.00, 2.00, 4.00, 8.00, and 24 h post dose for the po-administrated group, and the time points were 0.05, 0.25, 0.75, 2.00, 4.00, 8.00, and 24 h for the iv group. For each point, 20 μL of plasma were transferred into a clean tube, 200 μL of MeOH/ACN (50/50, v/v) containing IS were added, and they were thoroughly vortexed by a vortex mixer for 1 min. The mixture was centrifuged at 15000 rpm for 5 min, and then 20 μL of supernatant was mixed with 20 μL of water for the analysis by LC-MS.

| SMILES | IC50 [3] | IC50 (HDAC3) | IC50 (HDAC6) | IC50 [5] | IC50 [6] | IC50 (HDAC1) | also measured |
| --- | --- | --- | --- | --- | --- | --- | --- |
| Nc1ccccc1NC(=O)c1ccc(CNC(=O)OCc2cccnc2)cc1 [MS-275, entinostat, reference compound] |  |  |  |  |  |  | Ac-α-tubulin protein expression [1]: no discernible effect |
| Cc1[nH]c2ccccc2c1CCNCc1ccc(/C=C/C(=O)NO)cc1 [panobinostat] |  |  |  |  |  |  | F% (oral bioavailability) [2]: 4.62% |
| CC(=O)c1cccn1Cc1cn(CCc2ccc(C(=O)Nc3ccccc3N)cc2)nn1 [Compound 19a, 4-(2-(4-((2-Acetyl-1H-pyrrol-1-yl)methyl)-1H-1,2,3-triazol-1-yl)ethyl)-N-(2-aminophenyl)benzamide] | 8.32 ± 0.37 µM | 1390 ± 373 nM | > 10000 nM | 10 ± 0.52 µM | 13.2 ± 2.48 µM | 1100 ± 144 nM | Ac-α-tubulin protein expression [1]: no discernible effect; Promotion of RPMI-8226 cell apoptosis (RPMI-8226 cells): promote RPMI-8226 cell apoptosis in a dose-dependent manner; Histone H3 acetylation level [4]: increased histone H3 acetylation levels comparable to MS-275 |
| N#Cc1ccc2c(ccn2CCCCCCC(=O)NO)c1 [Compound 5l, 7-(5-Cyano-1H-indol-1-yl)-N-hydroxyheptanamide] | > 30 µM | 1.18 ± 0.06 nM | 2.31 ± 0.34 nM | > 30 µM | > 30 µM | 2.42 ± 0.36 nM |  |
| Nc1cc(F)ccc1NC(=O)c1ccc(CNC(=O)/C=C/c2cccnc2)cc1 [Chidamide, reference compound] | 0.5 ± 0.08 µM |  |  | 10.2 ± 1.02 µM | 4.67 ± 0.53 µM |  | Ac-α-tubulin protein expression [1]: no discernible effect |
| COC(=O)c1cccn1CCCCCCC(=O)NO [Compound 5d, Methyl 1-(7-(hydroxyamino)-7-oxoheptyl)-1H-pyrrole-2-carboxylate] | 21.8 ± 10.7 µM | 49.5 ± 2.92 nM | 11.2 ± 4.76 nM | > 30 µM | > 30 µM | 52 ± 21.9 nM |  |
| O=C(CCCCCCn1ccc2cc(Br)ccc21)NO [Compound 5k, 7-(5-Bromo-1H-indol-1-yl)-N-hydroxyheptanamide] | > 30 µM |  |  | > 30 µM | > 30 µM |  | inhibition at 1 µM (HDAC3): 92.2%; inhibition at 1 µM (HDAC6): 90.3%; inhibition at 1 µM (HDAC1): 96.2% |
| CC(=O)c1cccn1Cc1ccc(/C=C/C(=O)NO)cc1 [Compound 14, (E)-3-(4-((2-acetyl-1H-pyrrol-1-yl)methyl)phenyl)-N-hydroxyacrylamide] | 8.16 ± 1.96 µM | 457 ± 173 nM | 33.7 ± 14.8 nM | 8.85 ± 2.3 µM | 8.63 ± 0.82 µM | 800 ± 50.4 nM | Acetylated tubulin compared to compound 5c ([1]; same concentration): induced more acetylated tubulin; Promotion of RPMI-8226 cell apoptosis (RPMI-8226 cells): promote RPMI-8226 cell apoptosis in a dose-dependent manner; Acetylated histone H3 compared to compound 5c ([4]; same concentration): induced more acetylated tubulin and acetylated histone H3 |
| CC(=O)c1cccn1CCc1ccc(C(=O)Nc2ccccc2N)cc1 [Compound 20, 4-(2-(2-Acetyl-1H-pyrrol-1-yl)ethyl)-N-(2-aminophenyl)benzamide] | 4.71 ± 0.24 µM | 1080 ± 229 nM | > 10000 nM | 2.89 ± 0.43 µM | 9.08 ± 0.58 µM | 441 ± 78.2 nM | Ac-α-tubulin protein expression [1]: no discernible effect; Promotion of RPMI-8226 cell apoptosis (RPMI-8226 cells): promote RPMI-8226 cell apoptosis in a dose-dependent manner; Histone H3 acetylation level [4]: increased histone H3 acetylation levels comparable to MS-275; AUC(0-inf) ([7]; iv, 1 mg/kg): 163 ± 3 ng·h/mL; AUC(0-t) ([7]; iv, 1 mg/kg): 163 ± 3 ng·h/mL; MRT inf ([7]; iv, 1 mg/kg): 0.181 ± 0.006 h; clearance ([7]; iv, 1 mg/kg): 102 ± 2 mL/min/kg; half-life ([7]; iv, 1 mg/kg): 11.5 ± 0.72 min; Vd ([7]; iv, 1 mg/kg, read-out: Vss): 1.11 ± 0.052 L/kg; AUC(0-inf) ([7]; po, 5 mg/kg): 47.2 ± 26.6 ng·h/mL; AUC(0-t) ([7]; po, 5 mg/kg): 40.7 ± 21.8 ng·h/mL; Cmax ([7]; po, 5 mg/kg): 48.3 ± 31.1 ng/mL; MRT inf ([7]; po, 5 mg/kg): 1.84 ± 0.42 h; Tmax ([7]; po, 5 mg/kg): 20 ± 8.64 min; half-life ([7]; po, 5 mg/kg): 93 ± 30.6 min; bioavailability ([7]; po, 5 mg/kg, read-out: F (oral bioavailability)): 5% |
| O=C(CCCCCCn1ccc2cc(Cl)ccc21)NO [Compound 5j, 7-(5-Chloro-1H-indol-1-yl)-N-hydroxyheptanamide] | > 30 µM |  |  | > 30 µM | > 30 µM |  | inhibition at 1 µM (HDAC3): 93.3%; inhibition at 1 µM (HDAC6): 92.3%; inhibition at 1 µM (HDAC1): 96.2% |
| Cc1ccc2c(ccn2CCCCCCC(=O)NO)c1 [Compound 5g, N-hydroxy-7-(5-methyl-1H-indol-1-yl)heptanamide] | > 30 µM |  |  | > 30 µM | > 30 µM |  | inhibition at 1 µM (HDAC3): 93.5%; inhibition at 1 µM (HDAC6): 91.5%; inhibition at 1 µM (HDAC1): 96.1% |
| O=C(CCCCCCn1cccc1C(=O)C(F)(F)F)NO [Compound 5c, N-hydroxy-7-(2-(2,2,2-trifluoroacetyl)-1H-pyrrol-1-yl)heptanamide] | 8.56 ± 1.47 µM | 26.6 ± 1.9 nM | 4.22 ± 0.1 nM | 11.9 ± 1.58 µM | 12.3 ± 2.2 µM | 36.8 ± 5.87 nM | Promotion of RPMI-8226 cell apoptosis (RPMI-8226 cells): promote RPMI-8226 cell apoptosis in a dose-dependent manner |
| O=C(CCCCCCC(=O)Nc1ccccc1)NO [SAHA, vorinostat] |  |  |  |  |  |  | F% (oral bioavailability) [2]: 8.33% |
| O=C(CCCCCCn1ccc2ccccc21)NO [Compound 5f, N-hydroxy-7-(1H-indol-1-yl)heptanamide] | > 30 µM |  |  | > 30 µM | > 30 µM |  | inhibition at 1 µM (HDAC3): 94.4%; inhibition at 1 µM (HDAC6): 92.6%; inhibition at 1 µM (HDAC1): 96.8% |
| O=C(CCCCCCn1cccc1)NO [Compound 5a, N-hydroxy-7-(1H-pyrrol-1-yl)heptanamide] | 19.8 ± 1.88 µM | 129 ± 51.6 nM | 16.4 ± 6.31 nM | > 30 µM | 26.4 ± 4.1 µM | 101 ± 25.7 nM |  |
